Measured values taken from US20070072181A1 (priority 2003, published 2007).
Like-named read-outs stand apart in the source and are kept apart here.

Test system: VSV
Type: cell-based

Structure (SMILES): Cc1ccc(=O)n(-c2ccccc2)c1 [PD, 5-methyl-1-phenyl-2-(1H)-pyridone]
- Mean (Means for Oneway Anova; antiviral effect) (0.001 ng interferon + 3 μg pirfenidone (PD), HeLa, VSV): 0.6002
- Mean (Means for Oneway Anova; antiviral effect) (0.001 ng interferon + 30 μg pirfenidone (PD), HeLa, VSV): 0.543
- Mean (Means for Oneway Anova; antiviral effect) (0.001 ng interferon + 300 μg pirfenidone (PD), HeLa, VSV): 0.3705
- Mean (Means for Oneway Anova; antiviral effect) (0.0049 ng interferon + 3 μg pirfenidone (PD), HeLa, VSV): 0.407
- Mean (Means for Oneway Anova; antiviral effect) (0.0049 ng interferon + 30 μg pirfenidone (PD), HeLa, VSV): 0.3033
- Mean (Means for Oneway Anova; antiviral effect) (0.0049 ng interferon + 300 μg pirfenidone (PD), HeLa, VSV): 0.1915
- Mean (Means for Oneway Anova; antiviral effect) (0.019 ng interferon + 3 μg pirfenidone (PD), HeLa, VSV): 0.519
- Mean (Means for Oneway Anova; antiviral effect) (0.019 ng interferon + 30 μg pirfenidone (PD), HeLa, VSV): 0.284
- Mean (Means for Oneway Anova; antiviral effect) (0.019 ng interferon + 300 μg pirfenidone (PD), HeLa, VSV): 0.1785
- Mean (Means for Oneway Anova; antiviral effect) (0.076 ng interferon + 3 μg pirfenidone (PD), HeLa, VSV): 0.68
- Mean (Means for Oneway Anova; antiviral effect) (0.076 ng interferon + 30 μg pirfenidone (PD), HeLa, VSV): 0.4505
- Mean (Means for Oneway Anova; antiviral effect) (0.076 ng interferon + 300 μg pirfenidone (PD), HeLa, VSV): 0.1938
- Mean (Means for Oneway Anova; antiviral effect) (0.3 ng interferon + 3 μg pirfenidone (PD), HeLa, VSV): 0.5563
- Mean (Means for Oneway Anova; antiviral effect) (0.3 ng interferon + 30 μg pirfenidone (PD), HeLa, VSV): 0.4298
- Mean (Means for Oneway Anova; antiviral effect) (0.3 ng interferon + 300 μg pirfenidone (PD), HeLa, VSV): 0.1948
- Mean (Means for Oneway Anova; antiviral effect) (1.2 ng interferon + 3 μg pirfenidone (PD), HeLa, VSV): 0.306
- Mean (Means for Oneway Anova; antiviral effect) (1.2 ng interferon + 30 μg pirfenidone (PD), HeLa, VSV): 0.4248
- Mean (Means for Oneway Anova; antiviral effect) (1.2 ng interferon + 300 μg pirfenidone (PD), HeLa, VSV): 0.1872
- Mean (Means for Oneway Anova; antiviral effect) (4.8 ng interferon + 3 μg pirfenidone (PD), HeLa, VSV): 0.245
- Mean (Means for Oneway Anova; antiviral effect) (4.8 ng interferon + 30 μg pirfenidone (PD), HeLa, VSV): 0.3757
- Mean (Means for Oneway Anova; antiviral effect) (4.8 ng interferon + 300 μg pirfenidone (PD), HeLa, VSV): 0.325
- Mean (Means for Oneway Anova; antiviral effect) (19 ng interferon + 3 μg pirfenidone (PD), HeLa, VSV): 0.979
- Mean (Means for Oneway Anova; antiviral effect) (19 ng interferon + 30 μg pirfenidone (PD), HeLa, VSV): 0.2968
- Mean (Means for Oneway Anova; antiviral effect) (19 ng interferon + 300 μg pirfenidone (PD), HeLa, VSV): 0.4105
- effect on the antiviral effects of interferon (low doses of Pirfenidone with interferon, HeLa, VSV): enhance the antiviral effects of interferon
- effect on viral growth in combination with IFN-α (low doses of pirfenidone in combination therapy with IFN-α): synergistic effect on reducing viral growth
